The record followed here is PMC6316846, “Pretargeted Imaging with Gallium-68—Improving the Binding Capability by Increasing the Number of Tetrazine Motifs” (Pharmaceuticals, 2018).

Like-named read-outs stand apart in the source and are kept apart here.

Series [1] deals with CD20-expressing Raji cells. As to the kind of experiment: FACS analysis of antibody binding to Raji cells. The series is classed as cell-based. To be noted: antibody at 20 µM, APC-labelled anti-human IgG Fc secondary antibody. As to the method: The humanoid lymphoblast-like CD20-expressing B-lymphocyte cells (Raji cells) were purchased from American Type Culture Collection (ATCC, Manassas, VA, USA). Flow cytometric analysis of CD20 expression was evaluated on (Raji cells) adjusted to 5 × 10^5 cells/sample in DMEM (including 10% FCS, 1% Pen/Strep). Cells were incubated with FC-Block (containing CD16/CD32 (1:200), e-Bioscience, Thermo Fisher Scientific, Vienna, Austria) for 15 min at 4 °C in order to avoid signals from non-specific binding. The following antibodies were used: RTX-TCO and RTX, both at 20 µM (f. c.). As secondary antibody a APC-labelled anti-human IgG Fc (clone: HP6017; BioLedgend, San Diego, CA, USA) at a dilution of 1:100 was used. Antibodies were incubated for at least 15 min at 4 °C. FACS analysis was performed on BD LSRFortessa™ (Cell Analyzer, BD Bioscience, San Jose, CA, USA). As internal control samples unstained or stained with either primary or secondary antibodies were analyzed. FACS-data was analyzed by FlowJo v10 software.
For orientation: In flow cytometry, cells or beads pass a laser one at a time.

Series [2] can be described thus: Distribution coefficient (logD), octanol/PBS. Conditions: mean ± SD (n = 3); for LogD (pH 7.4): ^68Ga-labelled compound. It counts as physicochemical. The method, then: To determine the distribution of the ^68Ga-labelled conjugates between an organic (octanol) and aqueous (PBS) layer, aliquots (50 µL) of the tracers (~5 µM) were diluted in 1 mL of octanol/PBS (1:1, v/v). The mixture was vortexed at 1400 rpm (MS 3 basic vortexer, IKA, Staufen, Germany) for 15 min at RT followed by centrifugation for 2 min at 4500 rpm. Subsequently, aliquots (50 µL) of both layers were collected and measured in the gamma counter (Wizard2 3”, Perkin Elmer, Waltham, MA, USA) followed by logD calculation (n = 3, six replicates).

Series [3] in a line: Serum protein binding, Sephadex G-50 size exclusion. Conditions: ^68Ga-labelled compound, human serum, 37 °C, mean ± SD (n = 3). The series is classed as in vitro ADME. The method, then: Serum protein binding was determined using Sephadex G-50 (GE Healthcare Vienna, Austria) size exclusion chromatography. Aliquots (50 µL, n = 3) of the radioligand solution (~10 µM) were incubated in 450 µL freshly prepared human serum or 450 µL PBS (controls) and were kept at 37 °C. After 1, 2, and 4 h aliquots (25 µL) were directly transferred to the column (MicroSpin G-50, GE Healthcare) and after centrifugation (2 min, 2000 rcf) the column containing the free conjugate and the eluate containing the protein-bound conjugate were measured in the gamma counter. The percent of activity in both fractions was calculated thereafter.

The target of the next series is immobilized RTX-TCO. The series can be described thus: Competitive binding assay on immobilized RTX-TCO. To be noted: non-labelled conjugate as competitor, 30 min RT. The method, then: Binding on immobilized RTX-TCO was conducted using high protein-binding capacity Nunc MaxiSorp™ 96-well plates (Thermo Fisher Scientific, Vienna, Austria). Coating was performed by adding 20 µg of antibody (RTX or RTX-TCO) dissolved in 100 µL coating buffer (0.1 M NaHCO3, pH 8.5) to each well and after 2 h incubation at RT the plate was left at 4 °C overnight both under the exclusion of light. After removal of the coating solution 200 µL of blocking buffer (1% BSA in PBS) was added, left for 1 h at room temperature and subsequently each well was washed twice with 200 µL binding buffer (0.1% BSA in PBS). Hereafter, the radioligand was mixed with increasing concentrations of the competitor (=non-labelled conjugate), diluted in binding buffer and 100 µL of the mixture was added to each well. After 30 min at RT the supernatant was removed, each well was washed three times with 150 µL binding buffer and the coating film was finally detached with 2 × 150 µL of hot (80 °C) 2 N sodium hydroxide (NaOH). The NaOH fraction was taken for gamma counter measurement to determine the percentage of binding in contrast to the standard followed by non-liner curve fitting using Origin 6.1 software (Origin Inc., Northampton, MA, USA) to calculate the apparent half maximum inhibitory concentration of the competitor (n = 3, 4 replicates).

Setting [4] is: radioligand [^68Ga]Ga-Tz-dimer, read-out: Competitor concentration reducing binding of [^68Ga]Ga-Tz-dimer by 50%.
Where [5] appears, read: radioligand [^68Ga]Ga-Tz-monomer, read-out: Competitor concentration reducing binding of [^68Ga]Ga-Tz-monomer by 50%.
[6] abbreviates: radioligand [^68Ga]Ga-Tz-trimer, read-out: Competitor concentration reducing binding of [^68Ga]Ga-Tz-trimer by 50%.

With “TCO-modified RTX: anti-CD20 monoclonal antibody rituximab modified with trans-cyclooctene (TCO-NHS ester)”, the “Target specificity by FACS” value in series [1] is “high target specificity”.

As for “rituximab [non-modified RTX, reference compound]”, in series [1], the “Target specificity by FACS” value was “high target specificity”.

`C/C1=C/C(=O)N(O)CCCC(NC(=O)CCOCCOCCOCCOCCOCCC(=O)NCc2ccc(-c3nncnn3)cc2)C(=O)OCC/C(C)=C\C(=O)N(O)CCCC(NC(=O)CCOCCOCCOCCOCCOCCC(=O)NCc2ccc(-c3nncnn3)cc2)C(=O)OCC/C(C)=C\C(=O)N(O)CCCC(NC(=O)CCOCCOCCOCCOCCOCCC(=O)NCc2ccc(-c3nncnn3)cc2)C(=O)OCC1` (centres unmarked) [Tz-trimer, FSC-(PEG5-Tz)3]: the “LogD (pH 7.4)” value in series [2] was −1.00 ± 0.06. For the same molecule, the “Protein Binding (%) 1 h” value in series [3] (1 h) came out at 70.5 ± 0.7%. Also, the “Protein Binding (%) 2 h” value in series [3] (2 h) turned out to be 69.5 ± 0.4%. Moreover, the “Protein Binding (%) 4 h” value in series [3] (4 h) worked out at 67.8 ± 0.4%. Further, the IC50 on immobilized RTX-TCO (setting [4]) came out at 92 ± 15 nM; at immobilized RTX-TCO (setting [5]), 100 ± 10 nM; at immobilized RTX-TCO (setting [6]), 147 ± 49 nM.

As for `CC(=O)NC1CCCN(O)C(=O)/C=C(/C)CCOC(=O)C(NC(=O)CCOCCOCCOCCOCCOCCC(=O)NCc2ccc(-c3nncnn3)cc2)CCCN(O)C(=O)/C=C(/C)CCOC(=O)C(NC(=O)CCOCCOCCOCCOCCOCCC(=O)NCc2ccc(-c3nncnn3)cc2)CCCN(O)C(=O)/C=C(/C)CCOC1=O` (centres unmarked) [Tz-dimer, MAFC-(PEG5-Tz)2], the “LogD (pH 7.4)” value in series [2] is listed as −1.35 ± 0.01. The “Protein Binding (%) 1 h” value in series [3] (1 h) was determined as 67.0 ± 2.4%. Besides, in series [3] (2 h), the “Protein Binding (%) 2 h” value turned out to be 65.9 ± 1.3%. Moreover, the “Protein Binding (%) 4 h” value in series [3] (4 h) is recorded as 68.4 ± 0.3%. Further, the figures for the IC50 on immobilized RTX-TCO (setting [4]), on immobilized RTX-TCO (setting [5]) and at immobilized RTX-TCO (setting [6]) were 95 ± 25 nM, 112 ± 6 nM and 258 ± 60 nM, respectively.

`CC(=O)NC1CCCN(O)C(=O)/C=C(/C)CCOC(=O)C(NC(=O)CCOCCOCCOCCOCCOCCC(=O)NCc2ccc(-c3nncnn3)cc2)CCCN(O)C(=O)/C=C(/C)CCOC(=O)C(NC(C)=O)CCCN(O)C(=O)/C=C(/C)CCOC1=O` (centres unmarked) [Tz-monomer, DAFC-PEG5-Tz]: the log distribution coefficient (logD) (in general, lipophilicity at a set pH, counting ionised and neutral species) in series [2] (octanol/PBS (1:1, v/v), pH 7.4, ^68Ga-labelled compound) was -1.64 ± 0.02. In addition, the fraction unbound (as a rule, free concentration divided by total concentration) at 1 h in series [3] (1 h) was 0.382. This molecule showed a free fraction (fraction unbound) at 2 h in series [3] (2 h) of 0.362. In series [3] (4 h), this molecule had a free fraction (fraction unbound) at 4 h of 0.36. In addition, the IC50 is 865 ± 263 nM on immobilized RTX-TCO (setting [4]), 486 ± 52 nM at immobilized RTX-TCO (setting [5]) and 2990 ± 1660 nM at immobilized RTX-TCO (setting [6]).
